Data as given in ChEMBL document CHEMBL3044921, “Synthesis, characterization, and SAR studies of new (1H-indol-3-yl)alkyl-3-(1H-indol-3-yl)propanamide derivatives as possible antimicrobial and antitubercular agents” (2013).
Values after ≈ are worked out from the molar mass of the structure shown.

Experiments:
[1] = tested on: Talaromyces marneffei; experiment: Antifungal activity against Talaromyces marneffei assessed as growth inhibition at […] to […] ug/ml after 3 to 4 days by agar well diffusion method; format: functional
[2] = tested on: Aspergillus fumigatus; experiment: Antifungal activity against Aspergillus fumigatus NCIM 902 assessed as growth inhibition at […] to […] ug/ml after 3 to 4 days by agar well diffusion method; format: functional
[3] = tested on: Aspergillus flavus; experiment: Antifungal activity against Aspergillus flavus NCIM 524 assessed as growth inhibition at […] to […] ug/ml after 3 to 4 days by agar well diffusion method; format: functional
[4] = tested on: Candida albicans; experiment: Antifungal activity against Candida albicans assessed as growth inhibition after 3 to 4 days by serial plate dilution method; format: functional
[5] = tested on: Trichophyton mentagrophytes; experiment: Antifungal activity against Trichophyton mentagrophytes assessed as growth inhibition after 3 to 4 days by serial plate dilution method; format: functional
[6] = tested on: Talaromyces marneffei; experiment: Antifungal activity against Talaromyces marneffei assessed as growth inhibition after 3 to 4 days by serial plate dilution method; format: functional
[7] = tested on: Aspergillus fumigatus; experiment: Antifungal activity against Aspergillus fumigatus NCIM 902 assessed as growth inhibition after 3 to 4 days by serial plate dilution method; format: functional
[8] = tested on: Aspergillus flavus; experiment: Antifungal activity against Aspergillus flavus NCIM 524 assessed as growth inhibition after 3 to 4 days by serial plate dilution method; format: functional
[9] = tested on: Streptococcus pyogenes; format: functional
Description: Antibacterial activity against Streptococcus pyogenes assessed as growth inhibition at 1.56 to 25 ug/ml after 3 to 4 days by agar well diffusion method

[10] = tested on: Klebsiella pneumoniae; format: functional
Description: Antibacterial activity against Klebsiella pneumoniae assessed as growth inhibition at 1.56 to 25 ug/ml after 3 to 4 days by agar well diffusion method

[11] = tested on: Pseudomonas aeruginosa; format: functional, ATCC 27853
Description: Antibacterial activity against Pseudomonas aeruginosa ATCC 27853 assessed as growth inhibition at 1.56 to 25 ug/ml after 3 to 4 days by agar well diffusion method

[12] = tested on: Staphylococcus aureus; format: functional, ATCC 25923
Description: Antibacterial activity against Staphylococcus aureus ATCC 25923 assessed as growth inhibition at 1.56 to 25 ug/ml after 3 to 4 days by agar well diffusion method

[13] = tested on: Streptococcus pyogenes; experiment: Antibacterial activity against Streptococcus pyogenes assessed as growth inhibition after 16 to 18 hr by serial plate dilution method; format: functional
[14] = tested on: Mycolicibacterium fortuitum; experiment: Antitubercular activity against Mycobacterium fortuitum ATCC 19542 assessed as growth inhibition at 0.3125 to 5 ug/mL after 7 days by resazurin reduction test; format: functional; conditions: ATCC 19542, 168 h
[15] = tested on: Mycolicibacterium smegmatis; experiment: Antitubercular activity against Mycobacterium smegmatis ATCC 19420 assessed as growth inhibition at 0.3125 to 5 ug/mL after 7 days by resazurin reduction test; format: functional; conditions: ATCC 19420, 168 h
[16] = tested on: Mycobacterium tuberculosis; experiment: Antitubercular activity against Mycobacterium tuberculosis H37Rv ATCC 27294 assessed as growth inhibition at 0.3125 to 5 ug/mL after 7 days by resazurin reduction test; format: functional; conditions: H37Rv ATCC 27294, 168 h
[17] = tested on: Mycolicibacterium smegmatis; experiment: Antitubercular activity against Mycobacterium smegmatis ATCC 19420 assessed as growth inhibition at 1 to 100 ug/mL after 7 days by resazurin reduction test; format: functional; conditions: ATCC 19420, 168 h
[18] = tested on: Mycolicibacterium fortuitum; experiment: Antitubercular activity against Mycobacterium fortuitum ATCC 19542 assessed as growth inhibition at 1 to 100 ug/mL after 7 days by resazurin reduction test; format: functional; conditions: ATCC 19542, 168 h
[19] = tested on: Mycobacterium tuberculosis; experiment: Antitubercular activity against Mycobacterium tuberculosis H37Rv ATCC 27294 assessed as growth inhibition at 1 to 100 ug/mL after 7 days by resazurin reduction test; format: functional; conditions: for MIC: Mycobacterium tuberculosis, H37Rv ATCC 27294, 168 h
[20] = tested on: Candida albicans; experiment: Antifungal activity against Candida albicans assessed as growth inhibition at […] to […] ug/ml after 3 to 4 days by agar well diffusion method; format: functional
[21] = tested on: Trichophyton mentagrophytes; experiment: Antifungal activity against Trichophyton mentagrophytes assessed as growth inhibition at […] to […] ug/ml after 3 to 4 days by agar well diffusion method; format: functional
[22] = tested on: Klebsiella pneumoniae; experiment: Antibacterial activity against Klebsiella pneumoniae assessed as growth inhibition after 16 to 18 hr by serial plate dilution method; format: functional
[23] = tested on: Pseudomonas aeruginosa; experiment: Antibacterial activity against Pseudomonas aeruginosa ATCC 27853 assessed as growth inhibition after 16 to 18 hr by serial plate dilution method; format: functional
[24] = tested on: Escherichia coli; experiment: Antibacterial activity against Escherichia coli […] assessed as growth inhibition after 16 to 18 hr by serial plate dilution method; format: functional
[25] = tested on: Staphylococcus aureus; experiment: Antibacterial activity against Staphylococcus aureus ATCC 25923 assessed as growth inhibition after 16 to 18 hr by serial plate dilution method; format: functional
[26] = tested on: Escherichia coli; format: functional, ATCC 24922
Description: Antibacterial activity against Escherichia coli ATCC 24922 assessed as growth inhibition at 1.56 to 25 ug/ml after 3 to 4 days by agar well diffusion method

SMILES	diameter of the inhibition zone (DIZ) [1]	diameter of the inhibition zone (DIZ) [2]	diameter of the inhibition zone (DIZ) [3]	MIC [4]	MIC [5]	MIC [6]	MIC [7]	MIC [8]	diameter of the inhibition zone (DIZ) [9]	diameter of the inhibition zone (DIZ) [10]	diameter of the inhibition zone (DIZ) [11]	diameter of the inhibition zone (DIZ) [12]	MIC [13]	MIC [14]	MIC [15]	MIC [16]	MIC [17]	MIC [18]	growth inhibition (GI) [19]	MIC [19]	also measured
O=C(CCc1c[nH]c2ccc(Cl)cc12)NCc1c[nH]c2ccc(OC(F)(F)F)cc12	16 mm	16 mm	16 mm	6.25 µg/mL (≈ 14.3 µM)	6.25 µg/mL (≈ 14.3 µM)	6.25 µg/mL (≈ 14.3 µM)	6.25 µg/mL (≈ 14.3 µM)	6.25 µg/mL (≈ 14.3 µM)	11 mm	16 mm	16 mm	16 mm	12.5 µg/mL (≈ 28.7 µM)	1.25 µg/mL (≈ 2.87 µM)	1.25 µg/mL (≈ 2.87 µM)	1.25 µg/mL (≈ 2.87 µM)	1 µg/mL (≈ 2.29 µM)	10 µg/mL (≈ 22.9 µM)	90%	1 µg/mL (≈ 2.29 µM)	diameter of the inhibition zone (DIZ) [20]: 16 mm; diameter of the inhibition zone (DIZ) [21]: 16 mm; MIC [22]: 6.25 µg/mL (≈ 14.3 µM); MIC [23]: 6.25 µg/mL (≈ 14.3 µM); MIC [24]: 6.25 µg/mL (≈ 14.3 µM); MIC [25]: 6.25 µg/mL (≈ 14.3 µM); diameter of the inhibition zone (DIZ) [26]: 16 mm
Cc1[nH]c2ccc(OC(F)(F)F)cc2c1CNC(=O)CCc1c[nH]c2ccc(Cl)cc12	16 mm	<10 mm	16 mm	25 µg/mL (≈ 55.6 µM)	25 µg/mL (≈ 55.6 µM)	6.25 µg/mL (≈ 13.9 µM)	25 µg/mL (≈ 55.6 µM)	6.25 µg/mL (≈ 13.9 µM)	16 mm	<10 mm	16 mm	16 mm	6.25 µg/mL (≈ 13.9 µM)	10 µg/mL (≈ 22.2 µM)	10 µg/mL (≈ 22.2 µM)	0.625 µg/mL (≈ 1.39 µM)	10 µg/mL (≈ 22.2 µM)	10 µg/mL (≈ 22.2 µM)	95%	1 µg/mL (≈ 2.22 µM)	diameter of the inhibition zone (DIZ) [20]: <10 mm; diameter of the inhibition zone (DIZ) [21]: <10 mm; MIC [22]: 25 µg/mL (≈ 55.6 µM); MIC [23]: 6.25 µg/mL (≈ 13.9 µM); MIC [24]: 12.5 µg/mL (≈ 27.8 µM); MIC [25]: 6.25 µg/mL (≈ 13.9 µM); diameter of the inhibition zone (DIZ) [26]: 11 mm
Cn1cc(CCC(=O)NCc2c[nH]c3ccc(OC(F)(F)F)cc23)c2cc(Cl)ccc21	11 mm	16 mm	16 mm	12.5 µg/mL (≈ 27.8 µM)	25 µg/mL (≈ 55.6 µM)	12.5 µg/mL (≈ 27.8 µM)	6.25 µg/mL (≈ 13.9 µM)	6.25 µg/mL (≈ 13.9 µM)	16 mm	16 mm	16 mm	16 mm	6.25 µg/mL (≈ 13.9 µM)	10 µg/mL (≈ 22.2 µM)	1.25 µg/mL (≈ 2.78 µM)	0.625 µg/mL (≈ 1.39 µM)	1 µg/mL (≈ 2.22 µM)	10 µg/mL (≈ 22.2 µM)	95%	1 µg/mL (≈ 2.22 µM)	diameter of the inhibition zone (DIZ) [20]: 11 mm; diameter of the inhibition zone (DIZ) [21]: <10 mm; MIC [22]: 6.25 µg/mL (≈ 13.9 µM); MIC [23]: 6.25 µg/mL (≈ 13.9 µM); MIC [24]: 6.25 µg/mL (≈ 13.9 µM); MIC [25]: 6.25 µg/mL (≈ 13.9 µM); diameter of the inhibition zone (DIZ) [26]: 16 mm
Cn1cc(CCC(=O)NCc2cn(C)c3ccc(Cl)cc23)c2cc(Cl)ccc21	11 mm	<10 mm	<10 mm	25 µg/mL (≈ 60.3 µM)	25 µg/mL (≈ 60.3 µM)	12.5 µg/mL (≈ 30.2 µM)	25 µg/mL (≈ 60.3 µM)	25 µg/mL (≈ 60.3 µM)	<10 mm	11 mm	11 mm	<10 mm	25 µg/mL (≈ 60.3 µM)	10 µg/mL (≈ 24.1 µM)	10 µg/mL (≈ 24.1 µM)	10 µg/mL (≈ 24.1 µM)	> 100 µg/mL	10 µg/mL (≈ 24.1 µM)	<90%	> 100 µg/mL	diameter of the inhibition zone (DIZ) [20]: <10 mm; diameter of the inhibition zone (DIZ) [21]: <10 mm; MIC [22]: 12.5 µg/mL (≈ 30.2 µM); MIC [23]: 12.5 µg/mL (≈ 30.2 µM); MIC [24]: 12.5 µg/mL (≈ 30.2 µM); MIC [25]: 25 µg/mL (≈ 60.3 µM); diameter of the inhibition zone (DIZ) [26]: 11 mm
